In experiment [1] the target is PDE5 (human recombinant) (Homo sapiens, UniProt O76074). Put plainly: Inhibition of PDE5 activity: radioactive Scintillation Proximity Assay (SPA). Particulars: SPA assay (all Examples); read-out: PDE5 mean pIC50 (converted). It is filed as biochemical. The text has this: Human recombinant PDE5 is disclosed in K. Loughney et al., “Isolation and characterization of cDNAs encoding PDE5A, a human cGMP-binding, cGMP-specific 3′,5′-cyclic nucleotide phosphodiesterase”, Gene, 1998, 216, 139-147.
(§1) Inhibition of PDE3, PDE4B, PDE4D, PDE5 or PDE6 Activity: Radioactive Scintillation Proximity Assay (SPA)
(§2) The ability of compounds to inhibit catalytic activity at PDE4B or 4D (human recombinant), PDE3 (from bovine aorta) PDE5 (human recombinant) or PDE 6 (from bovine retina) was may be determined by Scintillation Proximity Assay (SPA) in 96-well format. Test compounds (preferably as a solution in DMSO, e.g. 2 microlitre (μl) volume) were preincubated at ambient temperature in Wallac Isoplates (code 1450-514) with PDE enzyme in 50 mM Tris-HCl buffer pH 7.5, 8.3 mM MgCl2, 1.7 mM EGTA, 0.05% (w/v) bovine serum albumin for 10-30 minutes. The enzyme concentration was adjusted so that control rates are linear over the assay incubation period. For the PDE3, PDE4B and PDE4D assays […] 3′,5′-cyclic phosphate (Amersham Pharmacia Biotech, code TRK.559 or Amersham Biosciences UK Ltd, Pollards Wood, Chalfont St Giles, Buckinghamshire HP8 4SP, UK) was added to give 0.05 μCi per well and ˜10 nM final concentration. For the PDE5 and PDE6 assays [8-^3H]guanosine 3′,5′-cyclic phosphate (Amersham Pharmacia Biotech , code TRK.392) was added to give 0.05 μCi per well and ˜36 nM final concentration. Plates e.g. containing approx. 100 μl volume of assay mixture were mixed on an orbital shaker for 5 minutes and incubated at ambient temperature for 1 hour. Phosphodiesterase SPA beads (Amersham Pharmacia Biotech, code RPNQ 0150) were added (˜1 mg per well) to terminate the assay. Plates were sealed and shaken and allowed to stand at ambient temperature for 35 minutes to 1 hour to allow the beads to settle. Bound radioactive product was measured using a WALLAC TRILUX 1450 MicroBeta scintillation counter. […] Curves were analyzed using ActivityBase and XLfit (ID Business Solutions Limited, 2 Ocean Court, Surrey Research Park, Guildford, Surrey GU2 7QB, United Kindgom). Results were expressed as pIC50 values.
For orientation: SPA uses beads or plates that emit light when radiolabelled molecules are held near them.

Experiment [2] deals with T1, PDE4B (human recombinant) (Homo sapiens, UniProt Q07343).
T1 construct: made in house
T1 sequence (Q07343 1-564 isoform Q07343-2): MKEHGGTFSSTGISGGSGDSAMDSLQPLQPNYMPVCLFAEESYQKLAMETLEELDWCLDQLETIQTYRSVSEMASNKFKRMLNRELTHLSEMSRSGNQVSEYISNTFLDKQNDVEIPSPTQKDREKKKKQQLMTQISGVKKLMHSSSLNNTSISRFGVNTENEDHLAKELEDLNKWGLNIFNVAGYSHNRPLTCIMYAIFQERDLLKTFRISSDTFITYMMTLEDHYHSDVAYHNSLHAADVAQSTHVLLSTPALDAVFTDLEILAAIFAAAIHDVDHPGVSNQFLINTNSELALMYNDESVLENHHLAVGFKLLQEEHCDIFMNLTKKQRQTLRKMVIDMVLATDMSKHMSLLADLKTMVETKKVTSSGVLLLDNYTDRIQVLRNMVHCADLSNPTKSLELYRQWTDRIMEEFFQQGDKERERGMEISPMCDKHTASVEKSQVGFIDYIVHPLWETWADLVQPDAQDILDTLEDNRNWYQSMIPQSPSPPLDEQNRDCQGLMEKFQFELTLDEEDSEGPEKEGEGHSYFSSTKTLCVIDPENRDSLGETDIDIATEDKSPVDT
The experiment is described as follows: Inhibition of PDE4B activity: radioactive Scintillation Proximity Assay (SPA). Particulars: SPA assay (Examples 1 to 6); read-out: PDE4B mean pIC50 (converted). It is filed as biochemical.
Description: Human recombinant PDE4B, in particular the 2B splice variant thereof (HSPDE4B2B), is disclosed in WO 94/20079 and also in M. M. McLaughlin et al., “A low Km, rolipram-sensitive, cAMP-specific phosphodiesterase from human brain: cloning and expression of cDNA, biochemical characterization of recombinant protein, and tissue distribution of mRNA”, J. Biol. Chem., 1993, 268, 6470-6476. For example, in Example 1 of WO 94/20079, human recombinant PDE4B is described as being expressed in the PDE-deficient yeast Saccharomyces cerevisiae strain GL62, e.g. after induction by addition of 150 uM CuSO4, and 100,000×g supernatant fractions of yeast cell lysates are described for use in the harvesting of PDE4B enzyme.
as §1, §2

Where only a bound is given, the exact number is not on record here.

The text below walks through data of patent US20070191426A1, “Derivatives of 3-aminocarbonylquinoline, pharmaceutical compositions containing them and processes and intermediates for their preparation” (priority 2003, published 2007).

As to `COc1cccc(Nc2c(C(N)=O)cnc3ccc(C(=O)Nc4ccccc4)cc23)c1` [Example 2, 4-{[3-(methyloxy)phenyl]amino}-N^6-phenyl-3,6-quinolinedicarboxamide], the results for the IC50 in experiment [1] and in experiment [2] were > 31600 nM and 25.1 nM, respectively.

For the molecule `COc1cccc(Nc2c(C(N)=O)cnc3ccc(C(=O)N4CCOCC4)cc23)c1` [Example 1, 4-{[3-(Methyloxy)phenyl]amino}-6-(4-morpholinylcarbonyl)-3-quinolinecarboxamide], the IC50 was > 31600 nM in experiment [1] and 10 nM in experiment [2].

As for `COc1cccc(Nc2c(C(N)=O)cnc3ccc(C(=O)NC(C)(C)C)cc23)c1` [Example 3], the IC50 was > 31600 nM in experiment [1] and 39.8 nM in experiment [2].

In the case of `CNC(=O)c1ccc2ncc(C(N)=O)c(Nc3cccc(OC)c3)c2c1` [Example 6], the IC50 was > 31600 nM in experiment [1] and 501 nM in experiment [2].
